Columns and labels:
Assay type in all cases: cell-based
[1] = tested on: Mycobacterium tuberculosis strain 9; test: Agar Dilution Test (MIC), strain 9 (Isoniacid R, Rifampicin S, Streptomycin R); details: TABLE A, MIC determined after 3, 4 and 5 weeks
[2] = tested on: Mycobacterium tuberculosis strain 8; test: Agar Dilution Test (MIC), strain 8 (Isoniacid S, Rifampicin R, Streptomycin S); details: TABLE A; strain 8; MIC determined after 3, 4 and 5 weeks
[3] = tested on: Mycobacterium tuberculosis strain 11; test: Agar Dilution Test (MIC), strain 11 (Isoniacid S, Rifampicin S, Streptomycin S); details: TABLE A; strain 11; MIC determined after 3, 4 and 5 weeks
[4] = tested on: Mycobacterium tuberculosis strain 6; test: Agar Dilution Test (MIC), strain 6 (Isoniacid S, Rifampicin S, Streptomycin S); details: TABLE A; strain 6; MIC determined after 3, 4 and 5 weeks
[5] = tested on: Mycobacterium tuberculosis strain 3; test: Agar Dilution Test (MIC), strain 3 (Isoniacid R, Rifampicin R, Streptomycin S); details: TABLE A; strain 3; MIC determined after 3, 4 and 5 weeks
[6] = tested on: Mycobacterium tuberculosis strain 12; test: Agar Dilution Test (MIC), strain 12 (Isoniacid S, Rifampicin S, Streptomycin S); details: TABLE A; strain 12; MIC determined after 3, 4 and 5 weeks
[7] = tested on: Mycobacterium tuberculosis strain 13; test: Agar Dilution Test (MIC), strain 13 (Isoniacid S, Rifampicin S, Streptomycin S); details: TABLE A; strain 13; MIC determined after 3, 4 and 5 weeks
[8] = tested on: Mycobacterium tuberculosis strain 5; test: Agar Dilution Test (MIC), strain 5 (Isoniacid R, Rifampicin R, Streptomycin S); details: TABLE A; strain 5; MIC determined after 3, 4 and 5 weeks
[9] = tested on: Mycobacterium tuberculosis strain 2; test: Agar Dilution Test (MIC), strain 2 (Isoniacid S, Rifampicin S, Streptomycin S); details: TABLE A; strain 2; MIC determined after 3, 4 and 5 weeks
[10] = tested on: Mycobacterium tuberculosis strain 10; test: Agar Dilution Test (MIC), strain 10 (Isoniacid S, Rifampicin S, Streptomycin S); details: TABLE A; strain 10; MIC determined after 3, 4 and 5 weeks
[11] = tested on: Mycobacterium tuberculosis strain 4; test: Agar Dilution Test (MIC), strain 4 (Isoniacid R, Rifampicin R, Streptomycin R); details: TABLE A; strain 4; MIC determined after 3, 4 and 5 weeks
[12] = tested on: Mycobacterium tuberculosis strain 7; test: Agar Dilution Test (MIC), strain 7 (Isoniacid R, Rifampicin S, Streptomycin R); details: TABLE A; strain 7; MIC determined after 3, 4 and 5 weeks
[13] = tested on: Mycobacterium tuberculosis strain 1; test: Agar Dilution Test (MIC), strain 1 (Isoniacid S, Rifampicin S, Streptomycin S); details: TABLE A; strain 1; MIC determined after 3, 4 and 5 weeks
[14] = tested on: Mycobacterium tuberculosis strain 15 (labor strain 137 kV); test: Agar Dilution Test (MIC), strain 15 = labor strain 137 kV (Isoniacid S, Rifampicin S, Streptomycin S); details: TABLE A; strain 15; MIC determined after 3, 4 and 5 weeks
[15] = tested on: Mycobacterium tuberculosis strain 14; test: Agar Dilution Test (MIC), strain 14 (Isoniacid S, Rifampicin S, Streptomycin S); details: TABLE A; strain 14; MIC determined after 3, 4 and 5 weeks

Structure (SMILES)	sensible (S) or resistant (R) [1]	sensible (S) or resistant (R) [2]	sensible (S) or resistant (R) [3]	sensible (S) or resistant (R) [4]	sensible (S) or resistant (R) [5]	sensible (S) or resistant (R) [6]	sensible (S) or resistant (R) [7]	sensible (S) or resistant (R) [8]	sensible (S) or resistant (R) [9]	sensible (S) or resistant (R) [10]	sensible (S) or resistant (R) [11]	sensible (S) or resistant (R) [12]	sensible (S) or resistant (R) [13]	sensible (S) or resistant (R) [14]	sensible (S) or resistant (R) [15]
[H]/N=C(/N)N[C@H]1[C@H](O)[C@@H](O)[C@H](O[C@@H]2O[C@@H](C)[C@](O)(C=O)[C@H]2O[C@@H]2O[C@@H](CO)[C@H](O)[C@@H](O)[C@@H]2NC)[C@@H](N/C(N)=N\[H])[C@@H]1O [Streptomycin]	R (A strain is designated as resistant if its MIC in testing according to the General Test Procedure after 3 to 5 weeks is higher than 20 μg/ml)	S (sensible (S))	S (sensible (S))	S (sensible (S))	S (sensible (S))	S (sensible (S))	S (sensible (S))	S (sensible (S))	S (sensible (S))	S (sensible (S))	R (A strain is designated as resistant if its MIC in testing according to the General Test Procedure after 3 to 5 weeks is higher than 20 μg/ml)	R (A strain is designated as resistant if its MIC in testing according to the General Test Procedure after 3 to 5 weeks is higher than 20 μg/ml)	S (sensible (S))	S (sensible (S))	S (sensible (S))
NNC(=O)c1ccncc1 [Isoniacid]	R (A strain is designated as resistant if its MIC in testing according to the General Test Procedure after 3 to 5 weeks is higher than 20 μg/ml)	S (sensible (S))	S (sensible (S))	S (sensible (S))	R (A strain is designated as resistant if its MIC in testing according to the General Test Procedure after 3 to 5 weeks is higher than 20 μg/ml)	S (sensible (S))	S (sensible (S))	R (A strain is designated as resistant if its MIC in testing according to the General Test Procedure after 3 to 5 weeks is higher than 20 μg/ml)	S (sensible (S))	S (sensible (S))	R (A strain is designated as resistant if its MIC in testing according to the General Test Procedure after 3 to 5 weeks is higher than 20 μg/ml)	R (A strain is designated as resistant if its MIC in testing according to the General Test Procedure after 3 to 5 weeks is higher than 20 μg/ml)	S (sensible (S))	S (sensible (S))	S (sensible (S))
CO[C@H]1/C=C/O[C@@]2(C)Oc3c(C)c(O)c4c(O)c(c(/C=N/N5CCN(C)CC5)c(O)c4c3C2=O)NC(=O)/C(C)=C\C=C\[C@H](C)[C@H](O)[C@@H](C)[C@@H](O)[C@@H](C)[C@H](OC(C)=O)[C@@H]1C [Rifampicin]	S (sensible (S))	R (A strain is designated as resistant if its MIC in testing according to the General Test Procedure after 3 to 5 weeks is higher than 20 μg/ml)	S (sensible (S))	S (sensible (S))	R (A strain is designated as resistant if its MIC in testing according to the General Test Procedure after 3 to 5 weeks is higher than 20 μg/ml)	S (sensible (S))	S (sensible (S))	R (A strain is designated as resistant if its MIC in testing according to the General Test Procedure after 3 to 5 weeks is higher than 20 μg/ml)	S (sensible (S))	S (sensible (S))	R (A strain is designated as resistant if its MIC in testing according to the General Test Procedure after 3 to 5 weeks is higher than 20 μg/ml)	S (sensible (S))	S (sensible (S))	S (sensible (S))	S (sensible (S))

— US20120046276A1, “Tuberculosis treatment using pleuromutilin derivatives” (priority 2002, published 2012)
